Measured values taken from article PMC5347425, “Small Molecule-Induced Domain Swapping as a Mechanism for Controlling Protein Function and Assembly” (Scientific Reports, 2017).

Biological target: T1, ribose binding protein (RBP) (Caldanaerobacter subterraneus, UniProt Q8RD41)
T1 construct: gene RbsB; RF125: RBP with human FKBP12 (V24A and C22A) inserted at position 125, without the NFM and CFM mutations
Experiment: isothermal titration calorimetry

T1 sequence (Q8RD41 24-313): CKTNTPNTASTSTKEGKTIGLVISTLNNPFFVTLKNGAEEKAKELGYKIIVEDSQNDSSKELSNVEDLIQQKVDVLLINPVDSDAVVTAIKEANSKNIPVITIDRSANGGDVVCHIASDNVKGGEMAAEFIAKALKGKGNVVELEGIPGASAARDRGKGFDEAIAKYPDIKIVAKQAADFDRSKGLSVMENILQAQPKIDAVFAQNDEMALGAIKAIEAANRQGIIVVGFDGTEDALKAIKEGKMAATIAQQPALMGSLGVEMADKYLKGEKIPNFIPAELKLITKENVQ
T1 sequence (P62942 with tags, fused parts or gaps C23A/V25A partner): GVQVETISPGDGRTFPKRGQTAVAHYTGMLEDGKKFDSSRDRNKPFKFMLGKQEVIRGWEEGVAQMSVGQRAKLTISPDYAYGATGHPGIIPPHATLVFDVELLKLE

Which Kd does the source give for `O=C[C@H](O)[C@H](O)[C@H](O)CO` [ribose] here?
Its Kd is 12.8 nM.
